Laboratory results from ChEMBL document CHEMBL4507269, “Data for DCP probe BAY-386” (2021).

Tests used:
[1] = target: D(1A) dopamine receptor (Homo sapiens) (UniProt P21728); assay: D1 (h) Eurofins-Cerep Cellular and Nuclear Receptor Functional Assays; conditions: Compound concentration 10.0 uM
[2] = target: P2Y purinoceptor 2 (Homo sapiens) (UniProt P41231); assay: P2Y2 (h) Eurofins-Cerep Cellular and Nuclear Receptor Functional Assays; conditions: Compound concentration 10.0 uM
[3] = target: RAC-alpha serine/threonine-protein kinase (Homo sapiens) (UniProt P31749); conditions: Compound concentration 1000.0 nM
[4] = target: Ankyrin repeat and protein kinase domain-containing protein 1 (Homo sapiens) (UniProt Q8NFD2); conditions: Compound concentration 1000.0 nM
[5] = target: Mitogen-activated protein kinase kinase kinase 6 (Homo sapiens) (UniProt O95382); conditions: Compound concentration 1000.0 nM
[6] = target: Bone morphogenetic protein receptor type-1A (Homo sapiens) (UniProt P36894); conditions: Compound concentration 1000.0 nM
[7] = target: Calcium/calmodulin-dependent protein kinase type II subunit alpha (Homo sapiens) (UniProt Q9UQM7); conditions: Compound concentration 1000.0 nM
[8] = target: Peripheral plasma membrane protein CASK (Homo sapiens) (UniProt O14936); conditions: Compound concentration 1000.0 nM
[9] = target: Cyclin-dependent kinase 3 (Homo sapiens) (UniProt Q00526); conditions: Compound concentration 1000.0 nM
[10] = target: Epidermal growth factor receptor (Homo sapiens) (UniProt P00533); conditions: Compound concentration 1000.0 nM
[11] = tested on: Epidermal growth factor receptor (Homo sapiens), P00533 [T790M]; conditions: Compound concentration 1000.0 nM
[12] = target: Ephrin type-A receptor 6 (Homo sapiens) (UniProt Q9UF33); conditions: Compound concentration 1000.0 nM
[13] = target: Ephrin type-B receptor 1 (Homo sapiens) (UniProt P54762); conditions: Compound concentration 1000.0 nM
[14] = target: Receptor-type tyrosine-protein kinase FLT3 (Homo sapiens) (UniProt P36888); conditions: Compound concentration 1000.0 nM
[15] = target: Homeodomain-interacting protein kinase 1 (Homo sapiens) (UniProt Q86Z02); conditions: Compound concentration 1000.0 nM
[16] = target: Mitogen-activated protein kinase 8 (Homo sapiens) (UniProt P45983); conditions: Compound concentration 1000.0 nM
Chain of Mitogen-activated protein kinase 8 (Homo sapiens) (P45983 whole entry): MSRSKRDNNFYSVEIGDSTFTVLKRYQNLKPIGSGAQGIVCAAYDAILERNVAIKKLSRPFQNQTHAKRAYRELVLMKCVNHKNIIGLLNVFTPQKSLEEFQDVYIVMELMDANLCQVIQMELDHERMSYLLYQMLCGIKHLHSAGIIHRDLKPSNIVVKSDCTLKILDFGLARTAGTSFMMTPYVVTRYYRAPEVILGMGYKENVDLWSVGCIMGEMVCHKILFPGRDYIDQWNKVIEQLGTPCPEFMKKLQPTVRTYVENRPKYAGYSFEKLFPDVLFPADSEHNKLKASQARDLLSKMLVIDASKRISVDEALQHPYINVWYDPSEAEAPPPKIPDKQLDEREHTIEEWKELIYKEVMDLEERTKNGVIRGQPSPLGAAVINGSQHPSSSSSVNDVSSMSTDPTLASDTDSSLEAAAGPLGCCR

[17] = target: Serine/threonine-protein kinase LATS2 (Homo sapiens) (UniProt Q9NRM7); conditions: Compound concentration 1000.0 nM
[18] = target: Leucine-rich repeat serine/threonine-protein kinase 2 (Homo sapiens) (UniProt Q5S007); conditions: Compound concentration 1000.0 nM
[19] = target: Leukocyte tyrosine kinase receptor (Homo sapiens) (UniProt P29376); conditions: Compound concentration 1000.0 nM
[20] = target: Dual specificity mitogen-activated protein kinase kinase 2 (Homo sapiens) (UniProt P36507); conditions: Compound concentration 1000.0 nM
[21] = target: Maternal embryonic leucine zipper kinase (Homo sapiens) (UniProt Q14680); conditions: Compound concentration 1000.0 nM
[22] = target: Mitogen-activated protein kinase kinase kinase 10 (Homo sapiens) (UniProt Q02779); conditions: Compound concentration 1000.0 nM
Chain of Mitogen-activated protein kinase kinase kinase 10 (Homo sapiens) (Q02779 whole entry, looked up): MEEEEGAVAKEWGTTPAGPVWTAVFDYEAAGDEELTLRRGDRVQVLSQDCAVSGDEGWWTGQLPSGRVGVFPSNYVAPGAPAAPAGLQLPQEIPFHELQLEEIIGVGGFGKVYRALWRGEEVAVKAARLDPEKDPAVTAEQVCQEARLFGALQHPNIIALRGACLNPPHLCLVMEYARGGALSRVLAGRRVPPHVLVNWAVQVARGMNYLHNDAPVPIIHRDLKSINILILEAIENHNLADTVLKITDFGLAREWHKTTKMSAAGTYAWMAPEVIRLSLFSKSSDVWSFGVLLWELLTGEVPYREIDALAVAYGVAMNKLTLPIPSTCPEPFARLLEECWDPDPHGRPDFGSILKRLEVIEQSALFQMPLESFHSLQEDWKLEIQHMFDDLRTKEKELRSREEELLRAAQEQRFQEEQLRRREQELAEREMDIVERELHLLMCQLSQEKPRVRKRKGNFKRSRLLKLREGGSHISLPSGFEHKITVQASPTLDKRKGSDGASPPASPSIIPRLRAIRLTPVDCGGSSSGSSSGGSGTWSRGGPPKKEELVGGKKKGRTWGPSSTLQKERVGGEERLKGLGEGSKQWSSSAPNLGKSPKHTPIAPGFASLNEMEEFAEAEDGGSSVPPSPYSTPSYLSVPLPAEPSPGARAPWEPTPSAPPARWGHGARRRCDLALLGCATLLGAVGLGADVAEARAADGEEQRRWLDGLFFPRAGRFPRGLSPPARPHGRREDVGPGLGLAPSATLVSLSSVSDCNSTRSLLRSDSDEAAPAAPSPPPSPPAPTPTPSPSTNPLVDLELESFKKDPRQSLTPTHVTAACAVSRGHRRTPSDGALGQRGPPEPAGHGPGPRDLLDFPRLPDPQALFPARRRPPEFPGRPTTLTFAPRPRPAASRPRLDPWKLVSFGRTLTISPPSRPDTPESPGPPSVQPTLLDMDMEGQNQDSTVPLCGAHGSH

[23] = target: Mitogen-activated protein kinase kinase kinase 11 (Homo sapiens) (UniProt Q16584); conditions: Compound concentration 1000.0 nM
[24] = target: Serine/threonine-protein kinase 3 (Homo sapiens) (UniProt Q13188); conditions: Compound concentration 1000.0 nM
Chain of Serine/threonine-protein kinase 3 (Homo sapiens) (Q13188 whole entry): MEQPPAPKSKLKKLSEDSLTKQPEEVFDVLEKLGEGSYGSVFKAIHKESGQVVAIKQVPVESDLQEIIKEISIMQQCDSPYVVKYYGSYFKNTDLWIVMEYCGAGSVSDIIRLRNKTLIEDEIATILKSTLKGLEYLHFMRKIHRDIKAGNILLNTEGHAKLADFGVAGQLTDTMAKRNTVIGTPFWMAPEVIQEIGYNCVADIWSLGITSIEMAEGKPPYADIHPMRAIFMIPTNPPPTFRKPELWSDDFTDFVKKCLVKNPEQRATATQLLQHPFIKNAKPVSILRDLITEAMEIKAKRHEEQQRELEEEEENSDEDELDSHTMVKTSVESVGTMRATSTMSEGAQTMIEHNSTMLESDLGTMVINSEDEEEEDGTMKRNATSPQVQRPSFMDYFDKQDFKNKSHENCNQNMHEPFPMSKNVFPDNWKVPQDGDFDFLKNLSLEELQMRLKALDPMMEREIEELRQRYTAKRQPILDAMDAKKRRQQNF

[25] = target: Myosin-IIIb (Homo sapiens) (UniProt Q8WXR4); conditions: Compound concentration 1000.0 nM
[26] = target: Serine/threonine-protein kinase Nek2 (Homo sapiens) (UniProt P51955); conditions: Compound concentration 1000.0 nM
[27] = target: Serine/threonine-protein kinase Nek6 (Homo sapiens) (UniProt Q9HC98); conditions: Compound concentration 1000.0 nM
[28] = target: Serine/threonine-protein kinase Nek9 (Homo sapiens) (UniProt Q8TD19); conditions: Compound concentration 1000.0 nM
[29] = target: Mitogen-activated protein kinase 14 (Homo sapiens) (UniProt Q16539); conditions: Compound concentration 1000.0 nM
[30] = target: Serine/threonine-protein kinase PAK 1 (Homo sapiens) (UniProt Q13153); conditions: Compound concentration 1000.0 nM
[31] = target: Serine/threonine-protein kinase PAK 6 (Homo sapiens) (UniProt Q9NQU5); conditions: Compound concentration 1000.0 nM
[32] = target: Cyclin-dependent kinase 17 (Homo sapiens) (UniProt Q00537); conditions: Compound concentration 1000.0 nM
[33] = target: Calcium-dependent protein kinase 1 (Plasmodium falciparum) (UniProt P62344); conditions: Compound concentration 1000.0 nM
[34] = target: Serine/threonine-protein kinase pim-3 (Homo sapiens) (UniProt Q86V86); conditions: Compound concentration 1000.0 nM
[35] = target: Serine/threonine-protein kinase PLK3 (Homo sapiens) (UniProt Q9H4B4); conditions: Compound concentration 1000.0 nM
[36] = target: Rho-associated protein kinase 2 (Homo sapiens) (UniProt O75116); conditions: Compound concentration 1000.0 nM
Chain of Rho-associated protein kinase 2 (Homo sapiens) (O75116 whole entry, looked up): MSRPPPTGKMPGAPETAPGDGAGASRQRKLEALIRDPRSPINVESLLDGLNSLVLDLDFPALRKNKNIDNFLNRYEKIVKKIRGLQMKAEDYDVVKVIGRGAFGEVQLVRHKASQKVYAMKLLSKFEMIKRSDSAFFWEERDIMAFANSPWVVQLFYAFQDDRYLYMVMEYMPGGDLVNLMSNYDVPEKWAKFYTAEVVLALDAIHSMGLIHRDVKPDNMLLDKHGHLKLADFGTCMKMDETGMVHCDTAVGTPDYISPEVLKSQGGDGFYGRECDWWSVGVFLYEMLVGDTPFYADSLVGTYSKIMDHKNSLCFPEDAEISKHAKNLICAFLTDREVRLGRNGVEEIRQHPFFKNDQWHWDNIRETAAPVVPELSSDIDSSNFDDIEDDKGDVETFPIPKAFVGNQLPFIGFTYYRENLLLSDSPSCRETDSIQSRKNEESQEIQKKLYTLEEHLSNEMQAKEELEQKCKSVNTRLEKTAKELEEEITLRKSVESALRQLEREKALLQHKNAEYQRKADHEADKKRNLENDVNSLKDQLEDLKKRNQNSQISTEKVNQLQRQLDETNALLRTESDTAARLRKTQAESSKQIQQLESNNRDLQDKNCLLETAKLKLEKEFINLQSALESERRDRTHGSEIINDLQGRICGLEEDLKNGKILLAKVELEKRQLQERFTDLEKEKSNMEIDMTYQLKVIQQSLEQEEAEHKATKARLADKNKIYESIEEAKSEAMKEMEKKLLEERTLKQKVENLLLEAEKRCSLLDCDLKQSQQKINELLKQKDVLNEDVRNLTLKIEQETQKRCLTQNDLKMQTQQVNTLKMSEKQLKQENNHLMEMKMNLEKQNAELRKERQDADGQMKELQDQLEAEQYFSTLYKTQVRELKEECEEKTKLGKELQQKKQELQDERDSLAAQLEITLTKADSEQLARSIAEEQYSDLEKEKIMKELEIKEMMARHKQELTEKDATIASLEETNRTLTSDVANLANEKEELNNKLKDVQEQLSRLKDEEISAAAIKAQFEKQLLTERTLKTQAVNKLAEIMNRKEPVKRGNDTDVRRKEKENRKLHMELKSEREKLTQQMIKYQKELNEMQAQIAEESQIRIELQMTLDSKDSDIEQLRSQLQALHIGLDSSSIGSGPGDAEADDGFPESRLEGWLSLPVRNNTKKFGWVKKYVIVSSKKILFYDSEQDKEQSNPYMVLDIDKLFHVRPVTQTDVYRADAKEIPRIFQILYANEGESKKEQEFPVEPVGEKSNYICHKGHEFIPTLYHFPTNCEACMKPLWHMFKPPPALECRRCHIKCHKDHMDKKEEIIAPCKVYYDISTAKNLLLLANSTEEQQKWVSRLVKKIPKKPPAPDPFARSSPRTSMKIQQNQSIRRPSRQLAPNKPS

[37] = target: Ribosomal protein S6 kinase alpha-4 (Homo sapiens) (UniProt O75676); conditions: Compound concentration 1000.0 nM
[38] = target: Ribosomal protein S6 kinase alpha-6 (Homo sapiens) (UniProt Q9UK32); conditions: Compound concentration 1000.0 nM
[39] = target: SRSF protein kinase 1 (Homo sapiens) (UniProt Q96SB4); conditions: Compound concentration 1000.0 nM
[40] = target: Serine/threonine-protein kinase TNNI3K (Homo sapiens) (UniProt Q59H18); conditions: Compound concentration 1000.0 nM
[41] = target: BDNF/NT-3 growth factors receptor (Homo sapiens) (UniProt Q16620); conditions: Compound concentration 1000.0 nM
[42] = target: Tyrosine-protein kinase Yes (Homo sapiens) (UniProt P07947); conditions: Compound concentration 1000.0 nM
Chain of Tyrosine-protein kinase Yes (Homo sapiens) (P07947 2-543 limits assumed): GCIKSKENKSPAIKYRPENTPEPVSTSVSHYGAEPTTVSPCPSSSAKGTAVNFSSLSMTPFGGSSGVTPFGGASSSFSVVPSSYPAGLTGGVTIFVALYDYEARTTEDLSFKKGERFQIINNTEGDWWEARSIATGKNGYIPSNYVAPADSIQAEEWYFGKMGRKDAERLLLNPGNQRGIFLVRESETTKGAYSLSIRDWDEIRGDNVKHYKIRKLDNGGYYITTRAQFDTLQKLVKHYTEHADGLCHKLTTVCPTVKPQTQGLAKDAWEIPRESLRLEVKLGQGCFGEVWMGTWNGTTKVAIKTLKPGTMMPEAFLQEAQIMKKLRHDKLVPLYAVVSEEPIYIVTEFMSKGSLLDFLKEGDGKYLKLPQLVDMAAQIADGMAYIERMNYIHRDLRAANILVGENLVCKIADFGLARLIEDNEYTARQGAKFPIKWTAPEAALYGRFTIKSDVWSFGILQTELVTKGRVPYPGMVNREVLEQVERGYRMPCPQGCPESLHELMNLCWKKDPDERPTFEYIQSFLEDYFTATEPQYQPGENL

[43] = target: D(2) dopamine receptor (Homo sapiens) (UniProt P14416); conditions: Compound concentration 10.0 uM
[44] = target: D(1B) dopamine receptor (Homo sapiens) (UniProt P21918); conditions: Compound concentration 10.0 uM
[45] = target: Alpha-2B adrenergic receptor (Homo sapiens) (UniProt P18089); conditions: Compound concentration 10.0 uM

Chain of P2Y purinoceptor 2 (Homo sapiens) (P41231 whole entry): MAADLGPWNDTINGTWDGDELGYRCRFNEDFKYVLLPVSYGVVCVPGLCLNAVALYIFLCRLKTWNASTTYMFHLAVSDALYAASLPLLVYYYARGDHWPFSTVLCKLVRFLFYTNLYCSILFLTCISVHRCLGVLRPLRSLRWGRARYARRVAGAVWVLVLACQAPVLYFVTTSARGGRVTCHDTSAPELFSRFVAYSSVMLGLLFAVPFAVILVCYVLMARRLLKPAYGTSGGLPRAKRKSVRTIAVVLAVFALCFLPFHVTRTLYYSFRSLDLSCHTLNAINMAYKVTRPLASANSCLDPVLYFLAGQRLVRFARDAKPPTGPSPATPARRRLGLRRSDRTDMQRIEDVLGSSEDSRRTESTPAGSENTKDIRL
Chain of D(1A) dopamine receptor (Homo sapiens) (P21728 whole entry): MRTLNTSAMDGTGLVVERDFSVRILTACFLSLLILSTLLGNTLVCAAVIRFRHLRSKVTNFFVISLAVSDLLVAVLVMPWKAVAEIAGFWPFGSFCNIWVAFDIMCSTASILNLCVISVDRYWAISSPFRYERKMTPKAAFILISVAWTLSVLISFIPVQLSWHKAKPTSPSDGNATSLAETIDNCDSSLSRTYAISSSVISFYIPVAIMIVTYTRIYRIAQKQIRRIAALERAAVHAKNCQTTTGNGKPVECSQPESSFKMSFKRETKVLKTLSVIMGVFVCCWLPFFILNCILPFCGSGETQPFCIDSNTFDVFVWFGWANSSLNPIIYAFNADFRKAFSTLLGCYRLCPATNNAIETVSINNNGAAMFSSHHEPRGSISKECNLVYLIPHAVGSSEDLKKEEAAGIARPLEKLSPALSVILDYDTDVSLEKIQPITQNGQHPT

SMILES: Cc1noc([C@H]2C[C@@H](c3ccc(C(F)(F)F)cc3)CN(C(=O)N3CCS(=O)(=O)C3)C2)n1 [BAY-448]
- % Inhibition of Control Agonist Response (Mean n=2) [1]: 13.9%
- % of Control Agonist Response (Mean n=2) [1]: -1.2%
- % Inhibition of Control Agonist Response (Mean n=2) [2]: 29.1%
- % of Control Agonist Response (Mean n=2) [2]: -4.2%
- residual activity [3]: 90%
- residual activity [4]: 100%
- residual activity [5]: 92%
- residual activity [6]: 100%
- residual activity [7]: 100%
- residual activity [8]: 93%
- residual activity [9]: 100%
- residual activity [10]: 100%
- residual activity [11]: 77%
- residual activity [12]: 100%
- residual activity [13]: 100%
- residual activity [14]: 100%
- residual activity [15]: 82%
- residual activity [16]: 77%
- residual activity [17]: 100%
- residual activity [18]: 65%
- residual activity [19]: 100%
- residual activity [20]: 90%
- residual activity [21]: 100%
- residual activity [22]: 96%
- residual activity [23]: 86%
- residual activity [24]: 100%
- residual activity [25]: 100%
- residual activity [26]: 100%
- residual activity [27]: 100%
- residual activity [28]: 100%
- residual activity [29]: 79%
- residual activity [30]: 79%
- residual activity [31]: 100%
- residual activity [32]: 100%
- residual activity [33]: 82%
- residual activity [34]: 91%
- residual activity [35]: 88%
- residual activity [36]: 100%
- residual activity [37]: 100%
- residual activity [38]: 100%
- residual activity [39]: 100%
- residual activity [40]: 100%
- residual activity [41]: 83%
- residual activity [42]: 100%
- inhibition [43]: -0.15%
- inhibition [44]: 22.6%
- inhibition [45]: -2.77%

SMILES: O=C(N1CCS(=O)(=O)CC1)N1C[C@H](c2ccc(OC(F)(F)F)cc2)C[C@H](c2nc(C3CC3)no2)C1 [BAY-386]
- % Inhibition of Control Agonist Response (Mean n=2) [1]: -31.6%
- % of Control Agonist Response (Mean n=2) [1]: -1.4%
- % Inhibition of Control Agonist Response (Mean n=2) [2]: 41.9%
- % of Control Agonist Response (Mean n=2) [2]: 0.7%
- residual activity [3]: 96%
- residual activity [4]: 100%
- residual activity [5]: 91%
- residual activity [6]: 89%
- residual activity [7]: 100%
- residual activity [8]: 100%
- residual activity [9]: 96%
- residual activity [10]: 100%
- residual activity [11]: 100%
- residual activity [12]: 100%
- residual activity [13]: 100%
- residual activity [14]: 81%
- residual activity [15]: 100%
- residual activity [16]: 82%
- residual activity [17]: 100%
- residual activity [18]: 100%
- residual activity [19]: 100%
- residual activity [20]: 100%
- residual activity [21]: 100%
- residual activity [22]: 99%
- residual activity [23]: 100%
- residual activity [24]: 100%
- residual activity [25]: 89%
- residual activity [26]: 100%
- residual activity [27]: 98%
- residual activity [28]: 100%
- residual activity [29]: 100%
- residual activity [30]: 100%
- residual activity [31]: 100%
- residual activity [32]: 98%
- residual activity [33]: 92%
- residual activity [34]: 100%
- residual activity [35]: 98%
- residual activity [36]: 98%
- residual activity [37]: 100%
- residual activity [38]: 100%
- residual activity [39]: 100%
- residual activity [40]: 100%
- residual activity [41]: 94%
- residual activity [42]: 96%
- inhibition [43]: -0.71%
- inhibition [44]: 9.95%
- inhibition [45]: 2.41%
